Experimental findings from ChEMBL document CHEMBL3860108, “Substituent Effects on Drug-Receptor H-bond Interactions: Correlations Useful for the Design of Kinase Inhibitors” (J Med Chem, 2016) are described below.

Structures are written as SMILES. pIC50: −log10 of the molar value.

Sequence of Serine/threonine-protein kinase B-raf (P15056 2-766 V600E limits assumed): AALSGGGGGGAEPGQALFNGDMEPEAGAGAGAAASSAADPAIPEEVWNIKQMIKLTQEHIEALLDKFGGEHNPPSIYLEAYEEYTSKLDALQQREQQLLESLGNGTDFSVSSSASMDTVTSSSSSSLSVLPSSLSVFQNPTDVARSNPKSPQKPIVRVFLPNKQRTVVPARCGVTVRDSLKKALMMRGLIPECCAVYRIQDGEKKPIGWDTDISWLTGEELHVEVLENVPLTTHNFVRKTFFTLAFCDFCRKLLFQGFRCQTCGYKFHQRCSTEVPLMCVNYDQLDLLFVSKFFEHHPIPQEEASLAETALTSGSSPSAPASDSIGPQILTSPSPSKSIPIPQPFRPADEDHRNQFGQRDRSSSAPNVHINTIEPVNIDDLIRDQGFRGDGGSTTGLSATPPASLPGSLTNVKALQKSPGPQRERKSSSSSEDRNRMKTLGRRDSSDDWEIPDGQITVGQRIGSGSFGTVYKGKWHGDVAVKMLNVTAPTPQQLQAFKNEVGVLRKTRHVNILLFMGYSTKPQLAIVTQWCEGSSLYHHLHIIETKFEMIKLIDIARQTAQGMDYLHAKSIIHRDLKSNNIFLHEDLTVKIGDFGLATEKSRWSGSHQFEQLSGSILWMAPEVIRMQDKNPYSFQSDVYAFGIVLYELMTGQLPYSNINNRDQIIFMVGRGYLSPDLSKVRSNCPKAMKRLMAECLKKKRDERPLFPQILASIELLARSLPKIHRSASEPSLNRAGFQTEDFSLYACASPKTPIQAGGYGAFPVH

One assay has as its target Serine/threonine-protein kinase B-raf (Homo sapiens, UniProt P15056, V600E). The experiment in a line: Inhibition of His6-tagged full length BRAF V600E mutant (2 to 766 residues) (unknown origin) expressed in Baculovirus expression system by BRAMA method.
In general, pIC50 refers to the IC50 on a negative log10 scale, so that one unit is a factor of ten. A low value points to a large IC50. The compound `CNS(=O)(=O)c1ccc(N(C)C)c(Nc2ncnc3ccc(Cl)cc23)c1` had a pIC50 of 6.40.

On to `CNS(=O)(=O)c1ccc(N(C)C)c(Nc2ncnc3ccc([N+](=O)[O-])cc23)c1`, for which the pIC50 was 5.20.

The next assay concerns the target T1, Serine/threonine-protein kinase TNNI3K (Homo sapiens, UniProt Q59H18).
T1 sequence (Q59H18 whole entry): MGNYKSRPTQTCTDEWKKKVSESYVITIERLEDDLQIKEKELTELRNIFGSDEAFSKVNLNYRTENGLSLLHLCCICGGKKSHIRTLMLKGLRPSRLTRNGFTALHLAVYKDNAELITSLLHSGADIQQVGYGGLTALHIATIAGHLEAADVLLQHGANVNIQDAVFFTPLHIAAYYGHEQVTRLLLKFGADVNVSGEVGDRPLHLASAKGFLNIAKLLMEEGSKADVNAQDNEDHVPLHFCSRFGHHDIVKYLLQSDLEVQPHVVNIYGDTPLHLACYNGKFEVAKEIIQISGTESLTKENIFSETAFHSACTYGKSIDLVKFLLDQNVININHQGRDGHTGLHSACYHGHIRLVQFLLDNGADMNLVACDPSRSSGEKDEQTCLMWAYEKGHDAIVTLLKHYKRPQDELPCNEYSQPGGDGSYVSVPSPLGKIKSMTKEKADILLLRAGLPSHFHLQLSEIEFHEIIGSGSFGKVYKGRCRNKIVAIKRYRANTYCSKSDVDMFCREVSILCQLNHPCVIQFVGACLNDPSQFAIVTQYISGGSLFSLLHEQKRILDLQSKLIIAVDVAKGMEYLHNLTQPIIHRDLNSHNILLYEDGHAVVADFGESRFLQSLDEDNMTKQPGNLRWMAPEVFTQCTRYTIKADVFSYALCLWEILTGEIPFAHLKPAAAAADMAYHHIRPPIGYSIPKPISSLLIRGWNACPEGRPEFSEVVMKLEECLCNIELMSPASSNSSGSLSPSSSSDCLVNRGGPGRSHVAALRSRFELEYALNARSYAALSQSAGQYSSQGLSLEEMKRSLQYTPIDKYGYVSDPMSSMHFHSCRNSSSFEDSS
The assay can be described thus: Displacement of 5-({[2-({[3-({4-[(5-hydroxy-2-methylphenyl)amino]-2-pyrimidinyl}amino)phenyl]carbonyl}amino)-ethyl]amino}carbonyl)-2-(6-hydroxy-3-oxo-3H-xanthen-9-yl)benzoic acid from His6-MBP-TEV-full length human TNNI3K expressed in Baculovirus expression system after 60 mins by fluorescence polarization assay.
Compound `CNS(=O)(=O)c1ccc(F)c(Nc2cc(Nc3ccc(Cl)cc3)ncn2)c1` had a pIC50 of 6.70.

In the case of `CNS(=O)(=O)c1ccc(C)c(Nc2cc(Nc3ccc(Cl)cc3)ncn2)c1`, the pIC50 is 6.80.

For the compound `CNS(=O)(=O)c1ccc(N2CCCC2C)c(Nc2cc(Nc3ccc(Cl)cc3)ncn2)c1` (stereo not given), the pIC50 is 6.60.

For the compound `CNS(=O)(=O)c1ccc(N(C)C)c(Nc2ncnc3ccc(Cl)cc23)c1`, the pIC50 was 6.40.

For the compound `CNS(=O)(=O)c1ccc(N2CCC(F)(F)C2)c(Nc2ncnc3[nH]ccc23)c1`, the pIC50 was 6.89.

For the compound `CNS(=O)(=O)c1ccc(OCC(F)(F)F)c(Nc2ncnc3[nH]ccc23)c1`, the pIC50 is 7.80.

`CNS(=O)(=O)c1ccc(N2CCC(F)(F)C2)c(Nc2cc(Nc3ccc(Cl)cc3)ncn2)c1` showed a pIC50 of 6.00.

In turn, `CNS(=O)(=O)c1ccc(SC)c(Nc2cc(Nc3ccc(Cl)cc3)ncn2)c1` showed a pIC50 of 6.40.

The compound `CNS(=O)(=O)c1ccc(N(C)C)c(Nc2ncnc3[nH]c4ccccc4c23)c1` had a pIC50 of 7.30.

In turn, `CNS(=O)(=O)c1ccc(N(C)C)c(Nc2ncnc3ccc([N+](=O)[O-])cc23)c1` had a pIC50 of 5.60.

Compound `CNc1ccc(S(=O)(=O)NC)cc1Nc1cc(Nc2ccc(Cl)cc2)ncn1` had a pIC50 of 5.60.

Regarding `CNS(=O)(=O)c1ccc(N2C(C)CCC2C)c(Nc2cc(Nc3ccc(Cl)cc3)ncn2)c1` (stereo not given), the pIC50 was 7.10.

Consider `CNS(=O)(=O)c1ccc(OC(F)(F)F)c(Nc2ncnc3[nH]ccc23)c1`, for which the negative logarithm of the IC50 (pIC50) is 7.30.

With `CNS(=O)(=O)c1ccc(N(C)CC(F)(F)F)c(Nc2cc(Nc3ccc(Cl)cc3)ncn2)c1`, the pIC50 is 7.40.

`CNS(=O)(=O)c1ccc(O)c(Nc2cc(Nc3ccc(Cl)cc3)ncn2)c1` gave a pIC50 of 6.80.

`CNS(=O)(=O)c1ccc(N2CCCC2)c(Nc2cc(Nc3ccc(Cl)cc3)ncn2)c1` gave a pIC50 of 5.89.

Compound `CCN(C)c1ccc(S(=O)(=O)NC)cc1Nc1cc(Nc2ccc(Cl)cc2)ncn1` gave a pIC50 of 7.20.

Regarding `CNS(=O)(=O)c1ccc(N2CCCC2C)c(Nc2ncnc3[nH]ccc23)c1` (stereo not given), the pIC50 is 6.89.

The compound `CCNc1ccc(S(=O)(=O)NC)cc1Nc1cc(Nc2ccc(Cl)cc2)ncn1` had a pIC50 of 5.49.

With `CNS(=O)(=O)c1ccc(N2CCCC2)c(Nc2ncnc3[nH]ccc23)c1`, the pIC50 is 6.49.

As for `CNS(=O)(=O)c1ccc(OC)c(Nc2cc(Nc3ccc(Cl)cc3)ncn2)c1`, the pIC50 was 7.30.

For the compound `CNS(=O)(=O)c1ccc(-c2ccccc2)c(Nc2ncnc3[nH]ccc23)c1`, the pIC50 was 6.70.

`CNS(=O)(=O)c1ccc(N(C)C)c(Nc2ncnc3[nH]cc(-c4ccco4)c23)c1` gave a negative-log IC50 (pIC50) greater than 8.00.

The compound `CNS(=O)(=O)c1ccc(OC(F)(F)F)c(Nc2cc(Nc3ccc(Cl)cc3)ncn2)c1` showed a negative logarithm of the IC50 (pIC50) of 7.49.

As to `CNS(=O)(=O)c1ccc(N)c(Nc2cc(Nc3ccc(Cl)cc3)ncn2)c1`, the pIC50 is 6.10.

Regarding `CNS(=O)(=O)c1ccc(OCC(F)(F)F)c(Nc2cc(Nc3ccc(Cl)cc3)ncn2)c1`, the pIC50 was 7.60.

Turning to `CNS(=O)(=O)c1ccc(N2CCCC(F)(F)C2)c(Nc2ncnc3[nH]ccc23)c1`, the pIC50 was greater than 8.00.

For `CNS(=O)(=O)c1ccc(F)c(Nc2ncnc3[nH]ccc23)c1`, the pIC50 was 6.60.

With `CNS(=O)(=O)c1ccc(Cl)c(Nc2cc(Nc3ccc(Cl)cc3)ncn2)c1`, the pIC50 is 6.89.

In the case of `CCCNc1ccc(S(=O)(=O)NC)cc1Nc1cc(Nc2ccc(Cl)cc2)ncn1`, the pIC50 was 5.80.

`CNS(=O)(=O)c1ccc(OC)c(Nc2ncnc3[nH]ccc23)c1` had a pIC50 of 7.00.

The compound `CNS(=O)(=O)c1ccc(N2C(C)CCC2C)c(Nc2ncnc3[nH]ccc23)c1` (stereo not given) gave a negative-log IC50 (pIC50) of 7.70.

In the case of `CNS(=O)(=O)c1ccc(N(C)C)c(Nc2ncnc3ncccc23)c1`, the pIC50 is 5.30.

On to `CNS(=O)(=O)c1ccc(O)c(Nc2ncnc3[nH]ccc23)c1`, for which the pIC50 is 7.40.

With `CNS(=O)(=O)c1ccc(N2CCCCC2)c(Nc2ncnc3[nH]ccc23)c1`, the pIC50 is 7.89.

The compound `CNS(=O)(=O)c1ccc(N(C)C)c(Nc2ncnc(Nc3ccc(Cl)cc3)n2)c1` gave a negative-log IC50 (pIC50) of 8.00.

As for `CNS(=O)(=O)c1ccc(N(C)C)c(Nc2cc(Nc3ccc(Cl)cc3)ncn2)c1`, the negative logarithm of the IC50 (pIC50) was 7.10.

For `CNS(=O)(=O)c1ccc(N(C)CC(F)(F)F)c(Nc2ncnc3[nH]ccc23)c1`, the pIC50 is 8.00.

In turn, `CNS(=O)(=O)c1ccc(N2CCC[C@@H]2C(F)(F)F)c(Nc2cc(Nc3ccc(Cl)cc3)ncn2)c1` gave a pIC50 of 7.20.

The compound `CNS(=O)(=O)c1cccc(Nc2cc(Nc3ccc(Cl)cc3)ncn2)c1` gave a pIC50 of 7.10.

`CNS(=O)(=O)c1ccc(N2CCCC(F)(F)C2)c(Nc2cc(Nc3ccc(Cl)cc3)ncn2)c1`: the pIC50 is 7.40.

In the case of `CCOc1ccc(S(=O)(=O)NC)cc1Nc1cc(Nc2ccc(Cl)cc2)ncn1`, the negative logarithm of the IC50 (pIC50) is 7.30.

The compound `CCCNc1ccc(S(=O)(=O)NC)cc1Nc1ncnc2[nH]ccc12` had a negative-log IC50 (pIC50) of 5.60.

Compound `CCN(C)c1ccc(S(=O)(=O)NC)cc1Nc1ncnc2[nH]ccc12` had a pIC50 of 7.49.

As for `CCOc1ccc(S(=O)(=O)NC)cc1Nc1ncnc2[nH]ccc12`, the pIC50 was 7.49.

The compound `CCNc1ccc(S(=O)(=O)NC)cc1Nc1ncnc2[nH]ccc12` gave a pIC50 of 5.60.

Consider `CNS(=O)(=O)c1ccc(N(C)C)c(Nc2ncnc3[nH]cnc23)c1`, for which the pIC50 was 7.80.

`CNS(=O)(=O)c1ccc(SC)c(Nc2ncnc3[nH]ccc23)c1` gave a pIC50 of 6.89.
